Source: patent US20200172489A1, “FLUORESCENT COMPOUND AND AUTOPHAGY DETECTION REAGENT USING SAME” (DOJINDO LABORATORIES, priority 2017, published 2020)
Structures can show the parent of a compound that is named as a salt.

Tests used:
HeLa cells [1] = assay: Autophagy detection test (4): staining of HeLa cells with Compound 4b and Compound 13, fluorescent microscopy; format: cell-based; conditions: Compound 4b 1 μM and Compound 13 0.1 μM; 3 hours or 6 hours; FIG. 12
Procedure: (§1) HeLa cells were seeded on a μ-slide 8 well (Ibidi) and incubated in a CO2 incubator at 37° C. overnight. Compound 4b (1 μM) or Compound 13 (0.1 μM) diluted with serum medium was added and incubated for 30 minutes. After washing twice with serum medium, the cells were incubated at 37° C. for 3 hours or 6 hours in an amino acid-free medium of serum containing-medium and observed with a fluorescent microscope.

HeLa cells [2] = assay: Autophagy detection test (1): evaluation using flow cytometry; format: cell-based; conditions: 1 μM; starvation condition, 6 hours and 20 hours; FIG. 3
Procedure: HeLa cells were seeded on a 24 well plate and incubated in a CO2 incubator at 37° C. overnight, 1 μM of Compound 4b diluted with serum medium was added and incubated for 30 minutes. After washing twice with the serum-free medium, a medium free from amino acid and serum was added and the cells were incubated at 37° C. for 6 hours or 20 hours. Cell were washed with PBS once, peeled with 0.25% trypsin-EDTA and used for flow cytometric analysis.

HeLa cells [3] = assay: Autophagy detection test (1): fluorescent microscopy of HeLa cells after introducing the compound, with autophagy induced or inhibited; format: cell-based; conditions: for fluorescent intensity in HeLa cells in the presence of Bafilomycin: Bafilomycin (0.1 μM bafilomycin A1), autophagy hardly occurs; for fluorescent intensity in HeLa cells in the presence of Bafilomycin / fluorescent intensity in HeLa cells, control group / fluorescent intensity in HeLa cells under starvation condition / change of fluorescent intensity in HeLa cells when bafilomycin was added under starvation condition: FIG. 7; for fluorescent intensity in HeLa cells, control group: Control (autophagy hardly occurs); for fluorescent intensity in HeLa cells under starvation condition: Starved; for change of fluorescent intensity in HeLa cells when bafilomycin was added under starvation condition: starvation plus bafilomycin
Procedure: HeLa cells were seeded on a μ-slide 8 well (Ibidi) and incubated in a CO2 incubator at 37° C. overnight. Compound 4b (1 μM) or Compound 6h (0.1 μM) diluted with serum medium was added and incubated for 30 minutes. After washing twice with serum medium, the cells were incubated at 37° C. for 6 hours or 20 hours in an amino acid-free medium of serum containing-medium and observed with a fluorescent microscope. As an autophagy inducing agent, 0.5 μM Rapamycin was used and as an autophagy inhibiting agent, 10 μM chloroquine and 0.1 μM bafilomycin A1 were used.

[4] = pH dependence of fluorescent intensity of the fluorescent compounds; format: physicochemical; conditions: for pH dependence of fluorescent intensity: FIG. 6
HeLa cells [5] = assay: Autophagy detection test (3): co-staining of HeLa cells with Compound 6h and Compound 11, fluorescent microscopy; format: cell-based; conditions: Compound 6h 1 μM and Compound 11 0.1 μM; 3 hours or 6 hours; FIG. 11
Procedure: as §1, with “Compound 6h” for “Compound 4b”, “μM) and” for “μM) or”, “Compound 11” for “Compound 13”

HeLa cells [6] = assay: Autophagy detection test (2): fluorescent microscopy of HeLa cells under starvation condition; format: cell-based; conditions: 0.1 μM; Starve vs Control; incubated 5 hours; FIG. 10
Procedure: as §1, with “6h diluted with a serum medium” for “4b (1 μM) or Compound 13”, “μM)” for “μM) diluted with serum medium”, “5” for “3 hours or 6”

Q: For CCCCCN1C(=O)c2cccc3c(N4CCN(CCN)CC4)ccc(c23)C1=O [Compound 4b, 2-(4-(1,3-dioxo-2-pentyl-2,3-dihydro-1H-benzo[de]isoquinolin-6-yl)piperazin-1-yl)ethane-1-amine hydrochloride salt], which “staining pattern in HeLa cells under starvation condition, two compounds introduced together” value (“staining pattern in HeLa cells” below) (HeLa cells [1]) is on record?
A: granular points stained only by Compound 4b and granular points co-stained by Compound 4b and Compound 13

Q: What about the “usefulness for detecting autophagy by flow cytometry” value (HeLa cells [2]) of the same molecule?
A: useful for detecting autophagy using not only fluorescent microscopy but also flow cytometry

Q: What about the “fluorescent intensity in HeLa cells in the presence of Bafilomycin” value (HeLa cells [3]) of the same molecule?
A: low

Q: And the “fluorescent intensity in HeLa cells, control group” value (HeLa cells [3])?
A: low

Q: And the “fluorescent intensity in HeLa cells, autophagy induced by adding Rapamycin” value (HeLa cells [3]; Rapamycin & Chloroquine group vs Control, 0.5 μM Rapamycin, 10 μM chloroquine, incubated 6 hours and 20 hours, FIG. 2)?
A: enhancement of the fluorescent intensities was observed

Q: What about the “fluorescent intensity in HeLa cells, autophagy induced by starvation culture” value (HeLa cells [3]; Starved group vs Control, incubated 6 hours and 20 hours, FIG. 2) of the same molecule?
A: enhancement of the fluorescent intensities was observed

Q: And the “fluorescent intensity in HeLa cells under starvation condition” value (HeLa cells [3]; autophagy induced)?
A: high

Q: And the “change of fluorescent intensity in HeLa cells when bafilomycin was added under starvation condition” value (HeLa cells [3])?
A: decreased

Q: For CCCCCN1C(=O)c2cccc3c(NCCCCCN)ccc(c23)C1=O [Compound 6h, hydrochloride salt], which “pH dependence of fluorescent intensity” value [4] is on record?
A: no pH dependence

Q: And the “staining pattern in HeLa cells” value (HeLa cells [5])?
A: granular points stained only by Compound 6h and granular points co-stained by Compound 6h and Compound 11

Q: What about the “fluorescent intensity in HeLa cells in the presence of Bafilomycin” value (HeLa cells [3]) of the same molecule?
A: low

Q: What about the “fluorescent intensity in HeLa cells, control group” value (HeLa cells [3]) of the same molecule?
A: low

Q: What about the “shape of fluorescent emission in high-magnification fluorescent microscopic images” value (HeLa cells [3]; HeLa cells, autophagy induced, FIG. 8, A-1 and A-2) of the same molecule?
A: ring-shaped fluorescent emission

Q: What about the “fluorescent intensity in HeLa cells under starvation condition” value (HeLa cells [3]; autophagy induced) of the same molecule?
A: high

Q: What about the “change of fluorescent intensity in HeLa cells when bafilomycin was added under starvation condition” value (HeLa cells [3]) of the same molecule?
A: did not decrease

Q: What about the “fluorescent intensity in HeLa cells under starvation condition” value (HeLa cells [6]) of the same molecule?
A: enhancement of the fluorescent intensity was observed

Q: Which “pH (acidic condition) under which the fluorescent intensity increases” value ([4]; FIG. 1 / FIG. 9) does the source give for CCCCCN1C(=O)c2ccc3c4cccc5c(N6CCN(CCN)CC6)ccc(c6ccc(c2c36)C1=O)c54 [Compound 11, 8-(4-(2-aminoethyl)piperazin-1-yl)-2-pentyl-1H-benzo[10,5]anthra[2,1,9-def]isoquinolin-1,3(2H)-dione] here?
A: ≤ 6

Q: What about the “staining pattern in HeLa cells” value (HeLa cells [5]) of the same molecule?
A: granular points co-stained by Compound 6h and Compound 11

Q: What does the source list for CCCCCN1C(=O)c2ccc3c4cccc5c(NCCCCCN)ccc(c6ccc(c2c36)C1=O)c54 [Compound 13, 5-((1,3-dioxo-2-pentyl-2,3-dihydro-1H-benzo[10,5]anthra[2,1,9-def]isoquinolin-8-yl)amino)pentane-1-amine hydrochloric salt]?
A: pH dependence of fluorescent intensity [4]: no pH dependence; staining pattern in HeLa cells under starvation condition, two compounds introduced together (HeLa cells [1]): granular points co-stained by Compound 4b and Compound 13
